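Grown in 96-well plates, cells were treated for 48 hours with each compound at five concentrations. Insufficient inhibition: endpoint recorded as highest concentration tested. The concentration for 50% growth inhibition is given as GI50.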 The source made the active and inactive calls. Cut-off read from the data, not from the text of the source: active = GI50 up to about 1.1 µM and inactive = higher.
What was measured:
Test in all cases: growth of human tumour cells (NCI), 48 h
A498 = system: A498
CCRF-CEM = system: CCRF-CEM
EKVX = system: EKVX
HCC 2998 = system: HCC 2998
HCT-116 = system: HCT-116
Hs-578T = system: Hs-578T
M19-MEL = system: M19-MEL
MCF7 = system: MCF7
MDA-MB-231 = system: MDA-MB-231
NCI-H460 = system: NCI-H460
RPMI-8226 = system: RPMI-8226
SF-295 = system: SF-295
SF-539 = system: SF-539
SN12C = system: SN12C
SNB-75 = system: SNB-75
TK-10 = system: TK-10
U-251 = system: U-251
UO-31 = system: UO-31
NCI-H522 = system: NCI-H522
UACC-257 = system: UACC-257

Row | Compound | GI50 (A498) | GI50 (CCRF-CEM) | GI50 (EKVX) | GI50 (HCC 2998) | GI50 (HCT-116) | GI50 (Hs-578T) | GI50 (M19-MEL) | GI50 (MCF7) | GI50 (MDA-MB-231) | GI50 (NCI-H460) | GI50 (RPMI-8226) | GI50 (SF-295) | GI50 (SF-539) | GI50 (SN12C) | GI50 (SNB-75) | GI50 (TK-10) | GI50 (U-251) | GI50 (UO-31) | GI50 (NCI-H522) | GI50 (UACC-257)
1 | C=Cc1cc(OC)c2c(c1)c(=O)oc1c2cc(OC)c2c(O)ccc(C3OC(C)C(O)C(C)(O)C3O)c21 (stereo not drawn) | 0.0444 µM (active) | 0.0225 µM (active) | 0.0398 µM (active) | 0.0493 µM (active) | 0.0235 µM (active) | 0.00295 µM (active) | 0.0614 µM (active) | 0.0225 µM (active) | 0.00345 µM (active) | 0.0225 µM (active) | 0.0294 µM (active) | 0.0313 µM (active) | 0.0295 µM (active) | 0.0303 µM (active) | 0.0302 µM (active) | 0.00249 µM (active) | 0.0296 µM (active) | 0.0454 µM (active) |  | 
2 | O=c1n(CC2CO2)c(=O)n(CC2CO2)c(=O)n1CC1CO1 (stereo not drawn) [TEROXIRONE] | 30.3 µM (inactive) | 3.6 µM (inactive) | 96.2 µM (inactive) | 43.7 µM (inactive) | 22.1 µM (inactive) | 33.8 µM (inactive) | 53.7 µM (inactive) | 11.1 µM (inactive) | 26.4 µM (inactive) | 2.03 µM (inactive) | 39.4 µM (inactive) | 10 µM (inactive) | 7.76 µM (inactive) | 7.83 µM (inactive) | 25.1 µM (inactive) | 36.6 µM (inactive) | 11 µM (inactive) | 25.7 µM (inactive) | 13.6 µM (inactive) | 32.7 µM (inactive)

Source: ChEMBL document CHEMBL1201862, “PubChem BioAssay data set” (2004)
